# In US20170190705A1, “Compositions and Methods for Inhibiting BMP” (THE BRIGHAM AND WOMAN'S HOSPITAL, INC., priority 2014, published 2017):
# What was measured:
# Format in all cases: biochemical
# [1] = target: T1, TYRO3 (Homo sapiens, UniProt Q06418); experiment: Kinome profiling TYRO3; settings: read-out: Inhibitory activity TYRO3; for inhibition at 0.1 µM: 100 nM
# T1 sequence (Q06418 41-890): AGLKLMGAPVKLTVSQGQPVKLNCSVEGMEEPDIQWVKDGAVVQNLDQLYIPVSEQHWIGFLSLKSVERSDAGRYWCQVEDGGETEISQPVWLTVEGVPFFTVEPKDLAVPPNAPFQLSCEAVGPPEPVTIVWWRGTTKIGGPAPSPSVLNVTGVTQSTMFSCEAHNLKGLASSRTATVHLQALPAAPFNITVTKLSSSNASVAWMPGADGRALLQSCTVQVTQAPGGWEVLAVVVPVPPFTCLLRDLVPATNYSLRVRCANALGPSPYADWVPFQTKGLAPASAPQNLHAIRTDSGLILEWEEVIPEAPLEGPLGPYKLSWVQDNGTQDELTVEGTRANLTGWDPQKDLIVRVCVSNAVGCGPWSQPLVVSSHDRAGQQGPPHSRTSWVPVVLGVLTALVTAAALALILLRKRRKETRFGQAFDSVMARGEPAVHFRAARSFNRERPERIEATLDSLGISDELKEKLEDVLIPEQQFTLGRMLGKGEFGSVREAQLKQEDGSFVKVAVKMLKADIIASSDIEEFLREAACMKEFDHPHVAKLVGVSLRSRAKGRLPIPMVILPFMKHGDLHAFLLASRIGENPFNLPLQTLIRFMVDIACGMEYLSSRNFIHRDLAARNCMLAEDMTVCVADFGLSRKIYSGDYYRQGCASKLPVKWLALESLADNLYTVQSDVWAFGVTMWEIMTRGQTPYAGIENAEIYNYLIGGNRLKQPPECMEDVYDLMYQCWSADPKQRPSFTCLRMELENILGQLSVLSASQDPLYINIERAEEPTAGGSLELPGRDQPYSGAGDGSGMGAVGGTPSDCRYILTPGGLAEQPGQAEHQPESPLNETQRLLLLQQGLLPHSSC
# Experimental: (§1) . The kinome-wide selectivity was determined following the methods previously reported by Mohedas et al., ACS Chem Biol 2013, 8, 1291-1302 and Sanvitale et al., PLoS One 2013, 8, e62721.
# [2] = target: MRCK-β (Homo sapiens, UniProt Q9Y5S2); experiment: Kinome profiling MRCK-β; settings: read-out: Inhibitory activity MRCK-β; for inhibition at 0.1 µM: 100 nM
# MRCK-β, sequence (Q9Y5S2 whole entry): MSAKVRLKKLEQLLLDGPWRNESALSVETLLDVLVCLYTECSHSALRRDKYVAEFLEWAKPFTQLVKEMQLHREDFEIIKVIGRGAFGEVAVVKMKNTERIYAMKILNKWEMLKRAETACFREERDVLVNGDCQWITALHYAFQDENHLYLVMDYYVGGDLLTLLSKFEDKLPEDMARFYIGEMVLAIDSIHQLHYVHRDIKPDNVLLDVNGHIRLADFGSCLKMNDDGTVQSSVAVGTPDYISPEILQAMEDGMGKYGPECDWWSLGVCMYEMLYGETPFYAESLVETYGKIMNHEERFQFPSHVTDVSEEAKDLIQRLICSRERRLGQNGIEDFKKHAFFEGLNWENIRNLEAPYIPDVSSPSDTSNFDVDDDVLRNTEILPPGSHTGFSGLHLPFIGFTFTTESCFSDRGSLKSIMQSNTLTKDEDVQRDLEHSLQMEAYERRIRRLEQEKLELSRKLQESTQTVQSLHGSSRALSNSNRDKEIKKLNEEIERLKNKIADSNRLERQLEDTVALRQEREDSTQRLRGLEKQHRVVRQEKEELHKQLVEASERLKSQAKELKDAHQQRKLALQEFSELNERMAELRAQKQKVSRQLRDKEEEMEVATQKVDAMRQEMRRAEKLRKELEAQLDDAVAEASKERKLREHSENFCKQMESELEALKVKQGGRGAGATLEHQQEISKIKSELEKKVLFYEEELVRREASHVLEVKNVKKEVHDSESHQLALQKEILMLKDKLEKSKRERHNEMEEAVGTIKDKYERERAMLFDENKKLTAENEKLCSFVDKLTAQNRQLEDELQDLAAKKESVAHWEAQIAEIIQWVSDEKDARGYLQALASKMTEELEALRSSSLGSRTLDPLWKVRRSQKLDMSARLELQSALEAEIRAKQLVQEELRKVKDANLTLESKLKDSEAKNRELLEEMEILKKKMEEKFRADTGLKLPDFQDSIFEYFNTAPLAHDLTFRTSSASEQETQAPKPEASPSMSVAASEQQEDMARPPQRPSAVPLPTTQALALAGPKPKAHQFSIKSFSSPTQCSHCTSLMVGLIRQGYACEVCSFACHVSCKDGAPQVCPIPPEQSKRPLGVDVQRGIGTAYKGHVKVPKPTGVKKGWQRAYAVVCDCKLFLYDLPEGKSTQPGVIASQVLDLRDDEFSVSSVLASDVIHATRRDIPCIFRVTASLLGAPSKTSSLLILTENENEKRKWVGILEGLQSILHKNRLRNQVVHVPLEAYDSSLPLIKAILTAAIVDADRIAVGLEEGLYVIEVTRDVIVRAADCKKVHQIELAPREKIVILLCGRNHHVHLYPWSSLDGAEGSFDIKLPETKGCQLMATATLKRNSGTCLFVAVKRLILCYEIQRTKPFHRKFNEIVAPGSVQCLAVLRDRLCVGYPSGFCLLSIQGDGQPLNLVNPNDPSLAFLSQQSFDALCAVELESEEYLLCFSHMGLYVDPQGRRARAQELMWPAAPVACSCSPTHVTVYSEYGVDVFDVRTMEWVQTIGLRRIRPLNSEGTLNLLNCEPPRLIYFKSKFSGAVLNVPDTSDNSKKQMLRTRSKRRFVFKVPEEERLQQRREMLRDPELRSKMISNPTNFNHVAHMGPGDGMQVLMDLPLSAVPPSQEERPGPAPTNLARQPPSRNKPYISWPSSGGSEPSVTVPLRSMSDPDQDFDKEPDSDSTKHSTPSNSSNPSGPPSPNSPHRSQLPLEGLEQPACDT
# Experimental: as §1
# [3] = target: T2, ARK5 (Homo sapiens, UniProt O60285); experiment: Kinome profiling ARK5; settings: read-out: Inhibitory activity ARK5; for inhibition at 0.1 µM: 100 nM
# T2 sequence (O60285 1-661): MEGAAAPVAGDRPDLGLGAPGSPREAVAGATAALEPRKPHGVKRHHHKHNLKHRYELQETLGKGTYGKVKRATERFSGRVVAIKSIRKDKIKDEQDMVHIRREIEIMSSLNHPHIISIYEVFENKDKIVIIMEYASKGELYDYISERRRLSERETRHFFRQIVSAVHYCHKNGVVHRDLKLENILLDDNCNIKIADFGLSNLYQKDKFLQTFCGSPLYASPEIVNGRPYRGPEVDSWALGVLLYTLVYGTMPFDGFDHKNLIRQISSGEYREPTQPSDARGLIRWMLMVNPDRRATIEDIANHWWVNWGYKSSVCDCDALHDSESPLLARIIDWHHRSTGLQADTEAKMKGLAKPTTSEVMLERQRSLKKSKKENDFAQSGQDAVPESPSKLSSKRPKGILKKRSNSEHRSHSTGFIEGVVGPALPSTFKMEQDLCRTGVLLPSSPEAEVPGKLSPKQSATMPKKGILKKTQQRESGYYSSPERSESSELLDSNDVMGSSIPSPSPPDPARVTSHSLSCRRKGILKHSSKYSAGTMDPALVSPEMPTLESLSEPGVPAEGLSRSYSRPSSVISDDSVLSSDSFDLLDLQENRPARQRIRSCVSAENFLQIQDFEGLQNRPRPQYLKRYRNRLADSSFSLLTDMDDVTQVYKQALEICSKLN
# Experimental: as §1
# [4] = target: PHKγ1 (Homo sapiens, UniProt Q16816); experiment: Kinome profiling PHKγ1; settings: read-out: Inhibitory activity PHKγ1; for inhibition at 0.1 µM: 100 nM
# PHKγ1, sequence (Q16816 whole entry): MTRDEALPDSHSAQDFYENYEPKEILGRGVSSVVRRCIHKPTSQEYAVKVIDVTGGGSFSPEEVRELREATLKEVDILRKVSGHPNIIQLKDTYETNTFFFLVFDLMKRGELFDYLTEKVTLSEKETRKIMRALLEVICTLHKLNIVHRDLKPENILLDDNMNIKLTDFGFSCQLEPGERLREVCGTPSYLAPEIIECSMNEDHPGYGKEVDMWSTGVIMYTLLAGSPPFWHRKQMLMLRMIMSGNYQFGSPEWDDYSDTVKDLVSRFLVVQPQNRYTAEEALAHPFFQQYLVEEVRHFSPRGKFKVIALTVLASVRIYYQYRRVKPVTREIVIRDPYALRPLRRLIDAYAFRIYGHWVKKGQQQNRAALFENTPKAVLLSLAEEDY
# Experimental: as §1
# [5] = target: JNK2 (Homo sapiens, UniProt P45984); experiment: Kinome profiling JNK2; settings: read-out: Inhibitory activity JNK2; for inhibition at 0.1 µM: 100 nM
# JNK2, sequence (P45984 whole entry): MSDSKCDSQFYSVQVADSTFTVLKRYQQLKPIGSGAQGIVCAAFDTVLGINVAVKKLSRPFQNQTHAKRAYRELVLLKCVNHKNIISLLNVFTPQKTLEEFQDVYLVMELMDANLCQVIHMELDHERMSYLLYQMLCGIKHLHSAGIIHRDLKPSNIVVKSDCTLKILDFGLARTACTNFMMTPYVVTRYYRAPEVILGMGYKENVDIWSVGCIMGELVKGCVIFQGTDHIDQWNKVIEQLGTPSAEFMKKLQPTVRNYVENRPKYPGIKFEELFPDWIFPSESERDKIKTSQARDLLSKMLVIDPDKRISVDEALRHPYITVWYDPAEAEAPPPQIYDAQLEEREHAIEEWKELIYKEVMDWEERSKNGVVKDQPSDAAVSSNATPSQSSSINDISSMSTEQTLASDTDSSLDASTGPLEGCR
# Experimental: as §1
# [6] = target: RSK3 (Homo sapiens, UniProt Q15349); experiment: Kinome profiling RSK3; settings: read-out: Inhibitory activity RSK3; for inhibition at 0.1 µM: 100 nM
# RSK3, sequence (Q15349 whole entry): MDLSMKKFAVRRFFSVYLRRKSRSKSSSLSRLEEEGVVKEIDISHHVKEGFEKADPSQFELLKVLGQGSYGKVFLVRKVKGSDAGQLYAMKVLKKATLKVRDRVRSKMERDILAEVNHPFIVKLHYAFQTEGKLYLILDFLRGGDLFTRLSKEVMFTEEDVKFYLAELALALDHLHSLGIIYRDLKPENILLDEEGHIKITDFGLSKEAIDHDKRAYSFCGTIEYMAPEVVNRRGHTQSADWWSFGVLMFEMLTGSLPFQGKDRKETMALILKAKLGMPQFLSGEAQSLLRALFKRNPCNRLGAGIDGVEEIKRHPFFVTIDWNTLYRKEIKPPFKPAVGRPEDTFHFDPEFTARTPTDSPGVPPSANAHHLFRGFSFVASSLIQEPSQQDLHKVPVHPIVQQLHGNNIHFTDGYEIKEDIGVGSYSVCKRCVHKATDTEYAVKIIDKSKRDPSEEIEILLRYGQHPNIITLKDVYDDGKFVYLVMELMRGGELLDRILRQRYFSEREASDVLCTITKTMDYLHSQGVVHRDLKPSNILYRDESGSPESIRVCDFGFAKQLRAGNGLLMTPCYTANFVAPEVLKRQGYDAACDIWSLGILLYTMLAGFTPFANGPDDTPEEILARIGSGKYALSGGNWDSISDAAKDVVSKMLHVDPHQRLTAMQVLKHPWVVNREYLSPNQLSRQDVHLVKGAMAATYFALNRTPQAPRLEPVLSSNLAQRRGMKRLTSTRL
# Experimental: as §1
# [7] = target: GRK6 (Homo sapiens, UniProt P43250); experiment: Kinome profiling GRK6; settings: read-out: Inhibitory activity GRK6; for inhibition at 0.1 µM: 100 nM
# GRK6, sequence (P43250 whole entry): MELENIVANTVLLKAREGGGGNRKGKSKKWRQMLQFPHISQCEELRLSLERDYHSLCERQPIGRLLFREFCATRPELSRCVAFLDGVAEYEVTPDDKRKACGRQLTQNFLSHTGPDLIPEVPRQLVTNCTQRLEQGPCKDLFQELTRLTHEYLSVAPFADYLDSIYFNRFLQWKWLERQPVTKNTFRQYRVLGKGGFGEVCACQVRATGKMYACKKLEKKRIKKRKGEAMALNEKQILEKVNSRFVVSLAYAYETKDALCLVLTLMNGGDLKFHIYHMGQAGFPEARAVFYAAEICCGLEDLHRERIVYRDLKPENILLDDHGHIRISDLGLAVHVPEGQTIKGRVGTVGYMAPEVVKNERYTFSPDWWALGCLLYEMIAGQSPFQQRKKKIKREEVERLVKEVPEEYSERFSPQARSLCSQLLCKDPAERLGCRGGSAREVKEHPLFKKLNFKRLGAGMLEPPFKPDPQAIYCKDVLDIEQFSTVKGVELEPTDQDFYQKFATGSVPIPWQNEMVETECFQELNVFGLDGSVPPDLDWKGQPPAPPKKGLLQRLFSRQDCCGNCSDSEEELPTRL
# Experimental: as §1
# [8] = target: T3, GRK7 (Homo sapiens, UniProt Q8WTQ7); experiment: Kinome profiling GRK7; settings: read-out: Inhibitory activity GRK7; for inhibition at 0.1 µM: 100 nM
# T3 sequence (Q8WTQ7 1-553): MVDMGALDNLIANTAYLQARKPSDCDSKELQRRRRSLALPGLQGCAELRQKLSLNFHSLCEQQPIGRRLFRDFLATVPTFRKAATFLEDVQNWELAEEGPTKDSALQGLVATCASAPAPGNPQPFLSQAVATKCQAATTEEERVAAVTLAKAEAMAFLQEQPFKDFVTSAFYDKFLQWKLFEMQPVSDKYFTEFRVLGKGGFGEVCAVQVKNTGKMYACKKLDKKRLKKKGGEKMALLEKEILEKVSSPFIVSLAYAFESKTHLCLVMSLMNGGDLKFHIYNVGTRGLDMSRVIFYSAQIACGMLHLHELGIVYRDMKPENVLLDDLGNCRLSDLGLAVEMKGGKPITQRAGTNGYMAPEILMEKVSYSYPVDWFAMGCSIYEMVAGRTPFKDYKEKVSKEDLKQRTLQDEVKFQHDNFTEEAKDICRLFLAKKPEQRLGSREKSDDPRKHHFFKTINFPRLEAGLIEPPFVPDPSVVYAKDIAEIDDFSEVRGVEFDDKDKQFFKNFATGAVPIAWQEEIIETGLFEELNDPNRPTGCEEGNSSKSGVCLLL
# Experimental: as §1
SMILES,inhibition at 0.1 µM [1] [%],inhibition at 1 µM [1] [%],inhibition at 0.1 µM [2] [%],inhibition at 1 µM [2] [%],inhibition at 0.1 µM [3] [%],inhibition at 1 µM [3] [%],inhibition at 0.1 µM [4] [%],inhibition at 1 µM [4] [%],inhibition at 0.1 µM [5] [%],inhibition at 1 µM [5] [%],inhibition at 0.1 µM [6] [%],inhibition at 1 µM [6] [%],inhibition at 0.1 µM [7] [%],inhibition at 1 µM [7] [%],inhibition at 0.1 µM [8] [%],inhibition at 1 µM [8] [%]
"COc1cc(-c2cc(-c3ccc(N4CCNCC4)cc3)cnc2C)cc(OC)c1OC [Compound 10, 1-(4-(6-methyl-5-(3,4,5-trimethoxyphenyl)pyridin-3-yl)phenyl)piperazine]",4,21,0,0,1,1,3,3,0,2,3,3,8,3,3,4
"COc1cc(-c2cc(-c3ccc(N4CCNCC4)cc3)cnc2N)cc(OC)c1OC [Compound 15, 5-(4-(piperazin-1-yl)phenyl)-3-(3,4,5-trimethoxyphenyl)pyridin-2-amine]",23,75,3,22,2,8,3,4,2,3,2,3,0,0,2,0
